# Experimental data published in patent US5912258A, “Thiadiazoleamide derivative and anti-ulcer drug” (Shiseido Co., Ltd., priority 1998, dated 1999).
# Experiments:
# stress ulcer formation = test: WIS: Restraint and Water Immersion Stress-Induced Ulcer Inhibition Test; assay type: in vivo, Male Crj:SD or Slc:SD rats; details: for WIS: ulcer formation inhibitory rate: rat, 100 mg/kg orally, 7 hours water immersion stress
# Experimental: WIS: Restraint and Water Immersion Stress-Induced Ulcer Inhibition Test (i) Meaning The degree of inhibition of the stress ulcer formation is tested. (ii) Method Male Crj:SD or Slc:SD rats (6 to 7-weeek-old) were fasted overnight, but allowed free access to water. Each group has 5 to 8 of these rats. The sample compound was dissolved or suspended in an aqueous solution of 0.3% sodium carboxymethylcellulose or 0.05% Tween 80 and then was orally administered (100 mg/10 ml/kg). To a control group, the vehicle was administered. 10 minutes later, the rats were placed in a stress cage and immersed to the level of xiphoid process in a water bath (21° C.) for 7 hours. At the end of the stress, the rats were sacrificed by inhalation of ether or carbon dioxide. Then, the stomach of each was removed, inflated by injecting 10 ml of 5% formalin neutral buffer solution, and immersed in 1% formalin neutral buffer solution for 30 minutes or more to be fixed. The stomach was incised along the greater curvature and then the length of each erosion in the glandular portion was determined under dissecting microscope. The sum of the length of erosions per stomach was defined as ulcer index (UI). (iii) Judgment Standard […]
# [1] = tested on: gastric corpus mucosa cells; test: MTT: Cell Damaging and Protecting Effect Test; assay type: cell-based, male Japanese White rabbit; details: rabbit gastric mucosa cells, 10^-4 M, 4 hours; smaller value is better; 100 µM
# Description: (§1) MTT: Cell Damaging and Protecting Effect Test
# (§2) It is confirmed that there is no toxicity in cell level. Those having toxicity in cell level are inappropriate as an anti-ulcer drug.
# (§3) A male Japanese White rabbit (2.5 to 3 kg) was anesthetized to death by Nembutal™ and, immediately thereafter, its stomach was removed. The greater curvature of the stomach was incised so as to remove the stomach contents therefrom. After the mucosal surface was washed with HBSS (Hank's Balanced Salt Solution), the stomach in ice-cooled HBSS was transferred to a laboratory. Then, after the pyloric antrum was removed, the gastric corpus mucosa was separated by a spatula and then minced into 2 to 3 mm pieces in BME (Basal Medium Eagle). Thereafter, these pieces were shaken at 120 to 130 cycles/minute for 15 minutes at 37° C. in BME 60 ml containing 280 U/ml of dispase and 30 to 50 U/mil of collagenase. Here, the concentration of collagenase was appropriately changed for each lot in view of the state of cells. The pieces were washed twice with EBSS (Earle's Balanced Salt Solution) containing 1 mM of EDTA and then shaken in MEM (Minimum Essential Medium) containing 1 mM of EDTA at 37° C. for 5 minutes. Subsequently, they were shaken in the dispase and collagenase having the same concentrations as those mentioned above for 15 minutes so as to remove the supernatant and then further shaken at 37° C. for 50 to 60 minutes at 120 to 130 cycles/minute. Then, after being washed twice with HBSS, Ham F12 containing 2% of Ultrocer G™ was used to attain the concentration of 1×10^6 cells/ml. Thus formed suspension was dispensed in each well of a 96-well plate by 200 μl. The plate was incubated in the atmosphere composed of 5% CO2 and 95% air at 37° C. for three days so as to attain a confluent state and then subjected to MTT assay.
# (§4) The sample compound was dissolved in DMSO so as to attain a concentration of 10^-2 M and then diluted with HBSS containing 2% of Ultrocer G™ so as to attain a final concentration of 10^-4 M. To each group, which 8 wells were used for, 10 μl of MTT reagent was added immediately after 100 μl of the medium in each well was exchanged for same volume of the resulting solution of the sample compound. After being incubated in an atmosphere composed of 5% CO2 and 95% air at 37° C. for 4 hours, thus formed solution was centrifuged and then its supernatant was discarded. Subsequently, 100 μl of 100% ethanol was added to the residue so as to dissolve MTT formazan. Then, the absorbance (OD: 570 to 630) was measured by a microplate reader. This method utilizes a phenomenon in which MTT is changed to MTT formazan only by mitochondria of living cells so as to change color.
# (§5) The cell damaging or cell protecting effect of the sample compound at the final concentration of 10^-4 M was expressed as cell damaging rate (%) as follows:
# (§6) cell damaging rate (%)={1-(absorbance in sample group/absorbance in control group)}×100
# (§7) Accordingly, the smaller value is better in the cell damaging rate.
# [2] = tested on: isolated gastric fundic gland; test: CAP: Acid Secretion Inhibition Test in vitro ([^14 C]-aminopyrine uptake); assay type: cell-based, male Japanese White rabbit; details: rabbit isolated gastric fundic gland, 10^-5 M, histamine 10^-5 M; for inhibition at 10 µM: Oryctolagus cuniculus, read-out: CAP: Acid secretion inhibitory rate
# Experimental: CAP: Acid Secretion Inhibition Test in vitro (i) Meaning The acid secretion inhibitory activity in a cell level is studied. It can also be used for studying the mechanism of the effect. (ii) Method (ii)-(a) Preparation of isolated gastric gland suspension First, an isolated gastric fundic gland sample was prepared. Namely, a male Japanese White rabbit (2.5 to 3 kg) was anesthetized to death with Nembutal™ and then the abdomen was incised. Immediately thereafter, the stomach was removed and, after its pyloric and cardiac antrum were severed, incised along its greater curvature into two sheets. The gastric contents adhering to the mucosal surface was washed out with ice-cooled PBS (-) and then carefully washed therein. The gastric wall was spread on a cork board with its mucosal surface facing up and the feed and mucus thereon were completely removed with sterile gauze. The mucosa was separated therefrom by a spatula and then collected in ice-cooled PBS (-). After being washed twice with PBS (-), the mucosa was minced into 2-3 mm^3 pieces by scissors. These pieces were further washed twice with a nutrient solution. The nutrient solution comprises 132.4 mM of NaCl, 5.4 mM of KCl, 5 mM of Na2 HPO4 ·12H2 O, 1 mM of NaH2 PO4 ·2H2 O, 1.2 mM of MgSO4, 1 mM of CaCl2, 25 mM of HEPES, 2 mg/ml of glucose, and 1 mg/ml of BSA. Into 70 ml of the nutrient solution containing 1 mg/ml of collagenase, minced mucosal pieces were dispersed and intensely stirred in a conical flask with a stirrer at 37° C. for 40 to 60 minutes. […] The nutrient solution was added to the reaction solution so as to attain the total amount of about 200 ml. After being filtered through a mesh, the suspension was divisionally introduced into 50 ml centrifuge tubes and left for 15 minutes such that gastric fundic gland was deposited. The supernatant was repeatedly removed by an aspirator, dispersed in the nutrient solution, and then left such that the gastric fundic gland was washed three times. At this time, without using a pipette, the suspension was alternately introduced into two centrifuge tubes so as to effect dispersion. The number of cells was counted under microscope and adjusted to 1.6×10^6 cells/ml. (ii)-(b) [^14 C]-aminopyrine uptake test Then [^14 C]-aminopyrine uptake test was performed. After an Eppendorf tube was weighed, 10 μl (final concentration: 10^-5 M) of histamine dissolved in the above-mentioned nutrient solution, 10 μl (final concentration: 10 ^-5 M) of the test compound dissolved in DMSO, and 10 μl (final concentration: 0.05 μCi/ml) of [^14 C]-aminopyrine diluted with the nutrient solution were introduced therein and then 970 μl of the isolated gastric fundic gland suspension prepared above were added thereto. Subsequently, this mixture was shaken at 37° C. for 40 minutes at 125 cycles/minute. After being centrifuged for 30 minutes 200 μl of its supernatant was collected into a mini-vial, while the rest was removed by an aspirator. The gland pellet was completely dried as the tube with its lid being opened was kept for one night in a drying oven at 80° C. and then the weight was determined at room temperature. Then 100 μl of 1N KOH was added thereto an the tube with its lid being closed was treated at 60° C. for 1 to 2 hours so as to dissolve the pellet. Then, the contents thereof were transferred to a mini-vial. Into the mini-vial containing the supernatant or gland pellet, 4 ml of Atomlite™ was added and then the radioactivity was measured by a liquid scintillation counter. Here, after the radioactivity of the gland pellet was corrected by using a sample in which 20 mM of NaSCN was added so as to cancel the hydrogen ion concentration gradient, the integration ratio of aminopyrine specifically trapped by the gland pellet was calculated. This experiment was performed in duplicate. (ii)-(c) Calculation of the accumulation rate of aminopyrine Here, its principle will be briefly explained. […]
# [3] = MTT: Cell Damaging and Protecting Effect Test; assay type: cell-based, male Japanese White rabbit; details: rabbit, gastric mucosa cells, 10^-4 M, smaller value is better, read-out: MTT: cell damaging rate
# Description: as §1, §2, §3, §4, §5, §6, §7
SMILES,WIS: ulcer formation inhibitory rate (stress ulcer formation) [%],MTT: cell damaging rate [1] [%],CAP: Acid secretion inhibitory rate [2] [%],"cytotoxicity at 4 h, 100 µM [3] [%]",inhibition at 10 µM [2] [%],anti-ulcer effect (in words) (stress ulcer formation; WIS)
"CC(C)c1ccc(C(=O)Nc2nnc(SCCN(C(C)C)C(C)C)s2)cc1.Cl [Example 3, 2-(4-isopropylbenzoyl)amino-5-diisopropylaminoethylthio-1,3,4-thiadiazole hydrochloride]",96,-75,104,,,
"CC(C)N(CCSc1nnc(NC(=O)c2ccc(C(C)(C)C)cc2)s1)C(C)C [Example 5, 2-(4-tert-butylbenzoyl)amino-5-diisopropylaminoethylthio-1,3,4-thiadiazole]",63,,,-19,100,
"CCN(CC)CCSc1nnc(NC(=O)c2cc(C(C)(C)C)cc(C(C)(C)C)c2)s1 [Example 6, 2-(3,5-di-tert-butylbenzoyl)amino-5-diethylaminoethylthio-1,3,4-thiadiazol]",81,,,58,100,sufficient effects
"CCN(CC)CCSc1nnc(NC(=O)c2ccc(OC(C)C)cc2)s1 [Example 7, 2-(4-isopropyloxybenzoyl)amino-5-diethylaminoethylthio-1,3,4-thiadiazole]",76,,,46,97,
"CCN(CC)CCSc1nnc(NC(=O)c2ccc(OC(C)(C)C)cc2)s1 [Example 8, 2-(4-tert-butoxybenzoyl)amino-5-diethylaminoethylthio-1,3,4-thiadiazole]",66,,,-11,99,
"CCN(CC)CCSc1nnc(NC(=O)c2ccc(NC(C)(C)C)cc2)s1 [Example 9, 2-(4-tert-butyaminobenzoyl)amino-5-diethylaminoethylthio-1,3,4-thiadiazole]",51,,,-107,2,
"CCN(CC)CCCSc1nnc(NC(=O)c2ccc(OC/C=C(\C)CCC=C(C)C)cc2)s1 [Example 11, 2-(4-geranyloxybenzoyl)amino-5-diethylaminopropylthio-1,3,4-thiadiazole]",65,,,48,100,
"CC(C)=CCC/C(C)=C/COc1ccc(C(=O)Nc2nnc(SCCCN3CCCCC3)s2)cc1 [Example 13, 2-(4-geranyloxybenzoyl)amino-5-piperidinopropylthio-1,3,4-thiadiazole]",51,,,41,100,
"CCCSc1nnc(NC(=O)c2ccc(OC/C=C(\C)CCC=C(C)C)cc2)s1 [Example 16, 2-(4-geranyloxybenzoyl)amino-5-propylthio-1,3,4-thiadiazole]",53,,,14,,
"CC(C)=CCC/C(C)=C/COc1ccc(C(=O)Nc2nnc(SCC(C)C)s2)cc1 [Example 17, 2-(4-geranyloxybenzoyl)amino-5-isobutylthio-1,3,4-thiadiazole]",46,,,-4,,
"CC(C)=CCC/C(C)=C/COc1ccc(C(=O)Nc2nnc(SCc3ccccc3)s2)cc1 [Example 18, 2-(4-geranyloxybenzoyl)amino-5-benzylthio-1,3,4-thiadiazole]",32,,,18,,
